Assay results reported in patent publication US6479666B2, “Phenyl-keto-imidazolidine thioamide derivatives” (Hoffman-La Roche Inc., priority 2001, dated 2002).
Counter-ions that a name gives are not always drawn.

What was measured:
[1] = test system: cynomolgus monkeys (Macaca fascicularis) challenged with Ascaris suum antigen; assay: Acute airway inflammation in the atopic primate; assay type: in vivo; conditions: p.o., 2 hours prior to antigen challenge; lavage at 24 hour after A. suum antigen challenge
Protocol: Example 4. Acute airway inflammation in the atopic primate.
Airway inflammation in the monkey was determined using a modification of the protocol described by Turner et al. (Turner et al., 1994). Adult male cynomolgus monkeys (Macaca fascicularis, Hazelton Labs, Denver, Pa.) weighing between 3.6-5.8 kg were used in these studies.
On the day of each experiment the animals were anesthetized with ketamine hydrochloride, 12 mg/kg, and xylazine, 0.5 mg/kg, intubated with a cuffed endotracheal tube (3 mm, Mallinckrodt Medical, St. Louis, Mo.), then seated in an upright position in a specially designed Plexiglass chair (Plas-Labs, Lansing, Mich.). The endotracheal tube was connected to a heated Fleisch pneumotachograph. Airflow was measured via a Validyn differential pressure transducer (DP 45-24) that was attached to the pneumotachograph. Transpulmonary pressure was measured via a second Validyne transducer (DP 45-24) connected between a sidearm of the tracheal cannula and a 18-gauge intrapleural needle inserted in the intercostal space located below the left nipple. […]
Airway inflammation was induced by exposing the animal to an aerosol of A. Suum extract for 60 sec. […] Airway inflammation was assessed by inserting a pediatric bronchoscope into the airway lumen down to about the 4 or 5th generation bronchi and gently lavaging with 3 X 2 ml aliquots of sterile Hanks Balanced Salt Solution. […]

[2] = molecular target: T1, Ramos cells bearing cell-surface VLA-4 (α4β1 integrin) binding to VCAM-1 (Homo sapiens, UniProt P05556+P13612); assay: Ramos (VLA-4) / VCAM-1 Cell-Based Screening Assay (cell adhesion); conditions: Calcein-AM labelled Ramos cells, VCAM-1 coated plates
T1 construct: Ramos cells bearing cell-surface VLA-4; endogenous in cells; host or cells: Ramos cells (VLA-4); VCAM-1 made in CHO cells
T1 sequence (P13612 34-1032): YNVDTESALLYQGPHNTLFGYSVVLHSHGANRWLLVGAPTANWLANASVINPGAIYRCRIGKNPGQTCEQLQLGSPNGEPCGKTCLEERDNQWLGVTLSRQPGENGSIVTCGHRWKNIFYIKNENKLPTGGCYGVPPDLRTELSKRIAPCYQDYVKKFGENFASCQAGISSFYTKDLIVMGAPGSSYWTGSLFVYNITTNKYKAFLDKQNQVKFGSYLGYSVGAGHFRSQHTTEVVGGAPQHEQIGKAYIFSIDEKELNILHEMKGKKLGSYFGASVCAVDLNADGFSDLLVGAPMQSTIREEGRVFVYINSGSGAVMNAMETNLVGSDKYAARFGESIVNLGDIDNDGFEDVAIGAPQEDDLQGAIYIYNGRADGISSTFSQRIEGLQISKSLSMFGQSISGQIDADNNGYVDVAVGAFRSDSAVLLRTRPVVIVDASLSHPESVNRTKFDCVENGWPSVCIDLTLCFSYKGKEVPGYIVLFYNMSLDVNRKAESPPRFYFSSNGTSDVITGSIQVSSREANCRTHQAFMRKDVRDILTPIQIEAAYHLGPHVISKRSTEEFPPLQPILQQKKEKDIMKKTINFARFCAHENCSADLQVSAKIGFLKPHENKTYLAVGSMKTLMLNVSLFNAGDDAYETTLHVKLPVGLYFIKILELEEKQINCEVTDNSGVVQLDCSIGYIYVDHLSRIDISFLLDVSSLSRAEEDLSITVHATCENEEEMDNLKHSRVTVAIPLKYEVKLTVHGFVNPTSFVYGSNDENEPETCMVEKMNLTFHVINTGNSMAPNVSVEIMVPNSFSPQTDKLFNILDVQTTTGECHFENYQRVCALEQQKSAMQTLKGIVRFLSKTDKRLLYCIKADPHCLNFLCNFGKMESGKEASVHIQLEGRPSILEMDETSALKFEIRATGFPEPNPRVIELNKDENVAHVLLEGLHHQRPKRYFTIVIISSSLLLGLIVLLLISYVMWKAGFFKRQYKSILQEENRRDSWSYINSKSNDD
T1 sequence (P05556 21-798): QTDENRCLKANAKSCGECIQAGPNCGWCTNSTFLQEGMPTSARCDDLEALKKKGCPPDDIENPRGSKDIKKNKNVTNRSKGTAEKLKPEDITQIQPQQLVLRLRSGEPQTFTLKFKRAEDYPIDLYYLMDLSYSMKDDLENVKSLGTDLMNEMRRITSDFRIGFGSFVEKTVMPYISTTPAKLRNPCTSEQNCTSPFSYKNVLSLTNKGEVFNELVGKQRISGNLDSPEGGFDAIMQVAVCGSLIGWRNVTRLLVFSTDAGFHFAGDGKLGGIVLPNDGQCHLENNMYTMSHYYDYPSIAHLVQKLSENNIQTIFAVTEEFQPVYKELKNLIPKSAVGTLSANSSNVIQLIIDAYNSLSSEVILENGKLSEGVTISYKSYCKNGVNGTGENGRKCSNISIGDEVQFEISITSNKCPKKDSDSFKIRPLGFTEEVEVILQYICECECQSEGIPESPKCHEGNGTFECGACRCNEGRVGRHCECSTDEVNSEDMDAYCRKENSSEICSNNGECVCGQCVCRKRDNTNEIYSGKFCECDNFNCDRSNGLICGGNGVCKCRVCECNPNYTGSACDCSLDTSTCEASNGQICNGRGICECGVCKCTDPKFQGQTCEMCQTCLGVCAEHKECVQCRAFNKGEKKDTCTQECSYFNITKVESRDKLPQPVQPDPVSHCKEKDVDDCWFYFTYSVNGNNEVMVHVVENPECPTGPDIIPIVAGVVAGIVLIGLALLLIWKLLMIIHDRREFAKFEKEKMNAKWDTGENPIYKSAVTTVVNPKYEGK
Protocol: 2. Ramos (VLA-4) / VCAM-1 Cell-Based Screening Assay Protocol
Soluble recombinant human VCAM-1 (mixture of 5- and 7-Ig domain) was purified from CHO cell culture media by immunoaffinity chromatography and maintained in a solution containing 0.1 M Tris-glycine (pH 7.5), 0.1 M NaCl, 5 mM EDTA, 1 mM PMSF, […] NaN3 and 10 μg/mL leupeptin. Calcein-AM was purchased from Molecular Probes Inc.
VLA-4 (α4β1 integrin) antagonist activity, defined as ability to compete with cell-surface VLA-4 for binding to immobilized VCAM-1, was quantitated using a Ramos-VCAM-1 cell adhesion assay. Ramos cells bearing cell-surface VLA-4, were labeled with a fluorescent dye (Calcein-AM) and allowed to bind VCAM-1 in the presence or absence of test compounds. A reduction in fluorescence intensity associated with adherent cells (% inhibition) reflected competitive inhibition of VLA-4 mediated cell adhesion by the test compound. Initially, this entailed coating 96 well plates (Nunc Maxisorp) with recombinant human VCAM-1 (100 ng in 100 μl PBS), sealing each plate and allowing the plates to stand at 4° C. for ^˜18 hr. The VCAM-coated plates were subsequently washed twice with 0.05% Tween-20 in PBS, and then blocked for 1 hr (room temperature) with 200 μl of Blocking Buffer (1% BSA/0.02% thimerosal) to reduce non-specific binding. Following the incubation with Blocking Buffer, plates were inverted, blotted and the remaining buffer aspirated. Each plate was then washed with 300 μl PBS, inverted and the remaining PBS aspirated.
Test compounds were dissolved in 100% DMSO and then diluted 1:25 in VCAM Cell Adhesion Assay Buffer (4 mM CaCl2, 4 mM MgCl2 in 50 mM TRIS-HCl, pH 7.5) (final DMSO=4%). A series of eight 1:4 dilutions were performed for each compound (general concentration range of 1 nM-12,500 nM). 100 μl/well of each dilution was added to the VCAM-coated plates, followed by 100 μl of Ramos cells (200,000 cells/well in 1% BSA/PBS). Plates containing test compounds and Ramos cells were allowed to incubate for 45 min at room temperature, after which 165 μl/well PBS was added. Plates were inverted to remove non-adherent cells, blotted and 300 μl/well PBS added. Plates were again inverted, blotted and the remaining buffer gently aspirated. 100 μl Lysis Buffer (0.1% SDS in 50 mM TRIS-HCl, pH 8.5) was added to each well and agitated for 2 min on a rotary shaking platform. The plates were then read for fluorescence intensity on a Cytofluor 2300 (Millipore) fluorescence measurement system (excitation=485 nm, emission=530 nm).

[3] = molecular target: T2, VLA-4 (α4β1 integrin) binding to immobilized VCAM-1 (Homo sapiens, UniProt P05556+P13612); assay: VLA-4/VCAM-1 Screening Assay (solid-phase dual antibody ELISA); conditions: Ramos cell-derived VLA-4, recombinant human VCAM-1 coated plates
T2 construct: followed by 10 μl of Ramos cell-derived VLA-4; endogenous in cells; host or cells: Ramos cells (VLA-4 prepared from them)
T2 sequence (P13612 34-1032): as the sequence (P13612 34-1032) above
T2 sequence (P05556 21-798): as the sequence (P05556 21-798) above
Protocol: 1. VLA-4/VCAM-1 Screening Assay
VLA-4 antagonist activity, defined as ability to compete for binding to immobilized VCAM-1, was quantitated using a solid-phase, dual antibody ELISA. VLA-4 (α4β1 integrin) bound to VCAM-1 is detected by a complex of anti-integrin β1 antibody: HRP-conjugated anti-mouse IgG: chromogenic substrate (K-Blue). Initially, this entailed coating 96 well plates (Nunc Maxisorp) with recombinant human VCAM-1 (0.4 μg in 100 μl PBS), sealing each plate and then allowing the plates to stand at 4° C. for ^˜18 hr. […] On the day of assay, all plates are washed twice with VCAM Assay Buffer (200 μl/well of 50 mM Tris-HCl, 100 mM NaCl, 1 mM MnCl2, 0.05% Tween 20; pH 7.4). Test compounds are dissolved in 100% DMSO and then diluted 1:20 in VCAM Assay Buffer supplemented with 1 mg/mL BSA (i.e., final DMSO=5%). A series of 1:4 dilutions are performed to achieve a concentration range of 0.005 nM−1.563 μM for each test compound. 100 μl per well of each dilution is added to the VCAM-coated plates, followed by 10 μl of Ramos cell-derived VLA-4. These plates are sequentially mixed on a platform shaker for 1 min, incubated for 2 hr at 37° C., and then washed four times with 200 μl/well VCAM Assay Buffer. 100 μl of mouse anti-human integrin β1 antibody is added to each well (0.6 μg/mL in VCAM Assay Buffer+1 mg/mL BSA) and allowed to incubate for 1 hr at 37° C. At the conclusion of this incubation period, all plates are washed four times with VCAM Assay Buffer (200 μl/well). A corresponding second antibody, HRP-conjugated goat anti-mouse IgG (100 μl per well @ 1:800 dilution in VCAM Assay Buffer+1 mg/mL BSA), is then added to each well, followed by a 1 hr incubation at room temperature and concluded by three washes (200 μl/well) with VCAM Assay Buffer. Color development is initiated by addition of 100 μl K-Blue per well (15 min incubation, room temp) and terminated by addition of 100 μl Red Stop Buffer per well. All plates are then read in a UV/V is spectrophotometer at 650 nM. Results are calculated as % inhibition of total binding (i.e., VLA-4+VCAM-1 in the absence of test compound).

IC50 [2]	IC50 [3]	melting point	SMILES	number and percent of inflammatory cells present in the lavage fluid relative to vehicle treated control animals [1]
66.5 nM	4 nM		COCCC1(C(=S)N[C@@H](Cc2ccc(NC(=O)c3c(Cl)cccc3Cl)cc2)C(=O)O)CCCC1 [Example 3, 4-[[(2,6-dichlorophenyl)carbonyl]amino]-N-[[1-(2-methoxy-ethyl)cyclopentyl]thioxomethyl]-L-phenylalanine]	
60 nM	0.47 nM		Cc1cccc(Cl)c1C(=S)N[C@@H](Cc1ccc(NC(=O)c2c(Cl)cccc2Cl)cc1)C(=O)O [Example 18, 4-[[(2,6-dichlorophenyl)carbonyl]amino]-N-[(2-chloro-6-methylphenyl)thioxomethyl]-L-phenylalanine]	
101 nM	6 nM		CCc1cccc(C)c1C(=S)N[C@@H](Cc1ccc(NC(=O)c2c(Cl)cccc2Cl)cc1)C(=O)O [Example 25, 4-[[(2,6-dichlorophenyl)carbonyl]amino]-N-[(2-ethyl-6-methylphenyl)thioxomethyl]-L-phenylalanine]	
784 nM			O=C(Nc1ccc(C[C@H](NC(=S)c2ccccc2C(F)(F)F)C(=O)O)cc1)c1c(Cl)cccc1Cl [Example 39, 4-[[(2,6-dichlorophenyl)carbonyl]amino]-N-[[2-(trifluoromethyl)phenyl]thioxomethyl]-L-phenylalanine]	
30 nM		200 to 202 °C	CS(=O)(=O)CCCCC1(C(=S)N[C@@H](Cc2ccc(NC(=O)c3c(Cl)cccc3Cl)cc2)C(=O)O)CCCC1 [Example 50, 4-[[(2,6-dichlorophenyl)carbonyl]amino]-N-[[1-[4-(methylsulfonyl)butyl]cyclopentyl]thioxomethyl]-L-phenylalanine]	
8 nM			CS(=O)(=O)CCCCC1(C(=S)N[C@@H](Cc2ccc(NC(=O)c3c(Cl)cccc3Cl)cc2)C(=O)O)CCC1 [Example 62, 4-[[(2,6-dichlorophenyl)carbonyl]amino]-N-[[1-[4-(methylsulfonyl)-butyl]cyclobutyl]thioxomethyl]-L-phenylalanine]	

Second part, the molecule before the results:

SMILES	IC50 [2]	IC50 [3]	melting point	number and percent of inflammatory cells present in the lavage fluid relative to vehicle treated control animals [1]
COCCC1(C(=S)N[C@@H](Cc2ccc([N+](=O)[O-])cc2)C(=O)OC)CCCC1 [Example 1, N-[[1-(2-methoxyethyl)cyclopentyl]thioxomethyl]-4-nitro-L-phenylalanine methyl ester]				significant decrease
CC(=O)NCCC1(C(=S)N[C@@H](Cc2ccc(NC(=O)c3c(Cl)cccc3Cl)cc2)C(=O)O)CCCC1 [Example 10, N-[[1-[2-(acetylamino)ethyl]cyclopentyl]thioxomethyl]-4-[[(2,6-dichlorophenyl)carbonyl]amino]-L-phenylalanine]	33 nM	1.5 nM		
CNC(=O)NCCC1(C(=S)N[C@@H](Cc2ccc(NC(=O)c3c(Cl)cccc3Cl)cc2)C(=O)O)CCCC1 [Example 11]	42.5 nM	5.6 nM		
CCc1cccc(C)c1C(=S)N[C@@H](Cc1ccc(N2C(=O)[C@@H](Cc3cccnc3)N(C(C)=O)[C@@H]2c2ccccc2)cc1)C(=O)O [Example 29, 4-[(2S,4R)-3-acetyl-5-oxo-2-phenyl-4-[(pyridin-3-yl)methyl]imidazolidin-1-yl]-N-[(2-ethyl-6-methylphenyl)thioxomethyl]-L-phenylalanine]	220 nM			
O=C(Nc1ccc(C[C@H](NC(=S)c2ccccc2F)C(=O)O)cc1)c1c(Cl)cccc1Cl [Example 34, 4-[[(2,6-dichlorophenyl)carbonyl]amino]-N-[(2-fluorophenyl)thioxomethyl]-L-phenylalanine]	4180 nM			
Cc1ccnc(C)c1C(=O)Nc1ccc(C[C@H](NC(=S)C2(CCCCS(C)(=O)=O)CCCC2)C(=O)O)cc1 [Example 53, 4-[[(2,4-dimethylpyridin-3-yl)carbonyl]amino]-N-[[1-[4-(methylsulfonyl)butyl]-cyclopentyllthioxomethyl]-L-phenylalaninetrifluoroacetic acid salt]	148 nM			
CSCCCC1(C(=S)N[C@@H](Cc2ccc(NC(=O)c3c(Cl)cccc3Cl)cc2)C(=O)O)CCC1 [Example 71, 4-[[(2,6-dichlorophenyl)carbonyl]amino]-N-[[1-[3-(methylthio)propyl]cyclobutyl]-thioxomethyl]-L-phenylalanine]	926 nM		186 to 188 °C	
CS(=O)(=O)CCCC1(C(=S)N[C@@H](Cc2ccc(NC(=O)c3c(Cl)cccc3Cl)cc2)C(=O)O)CCC1 [Example 78, 4-[[(2,6-dichlorophenyl)carbonyl]amino]-N-[[1-[3-(methylsulfonyl)propyl]cyclobutyl]thioxomethyl]-L-phenylalanine]	341 nM			
Cc1cc(C(F)(F)F)c(C(=O)Nc2ccc(C[C@H](NC(=S)C3(CCCCS(C)(=O)=O)CCC3)C(=O)O)cc2)c(C)n1 [Example 84]	5.5 nM			
